According to patent EP1052287A2, “Complex for transferring an anionic substance of interest into a cell” (TRANSGENE S.A., priority 1999, dated 2000):
Where no end group is shown, it is not given here.

What was measured:
[1] = Size of peptide/DNA complexes by quasi-elastic light scattering; assay type: physicochemical; settings: complexes (-/+) [1:4], 6 µg DNA, 500 µl
Protocol: Sizes of complexes prepared with a plasmid DNA (PTG11033; see EP-A 890 32, 9.6 kb) and the C1qA (4-26) peptide (SEQ ID NO:1)see Table I) were evaluated. Complexes were formulated either in 5% glucose or in ultrafiltrated foetal calf serum (YM10 Amicon membrane). Formulation was made in 500 µl buffer, with 6 µg DNA and the quantity of peptide necessary to form a [1:4], [-:+] complex. As a control a polylysine SV40 NLS peptide was used. […] When oxidized, the dimerized C1qA peptide could form even smaller complexes, whatever the formulation buffer used. The reasonable sizes obtained in ultrafiltrated serum with C1qA peptides is an advantage for the use of this peptide rather than polylysine derivatives.
Complexes (-/+):[1:4], 6 µg DNA, 500 µl. Size measures: quasi-elastic light scattering, COULTER N4+.

plasmid pTGl1033 = assay: Gel retardation assay, agarose gel electrophoresis (Example 2); assay type: binding
Protocol: (§1) Gel retardation assay was performed with C1qA (4-26) (SEQ ID NO:1) in several buffers: PBS, TBS, 5% glucose, or ultrafiltrated serum (YM10 Amicon membrane). DNA and peptides have been mixed at charge ratios [-/+] of [1:4], [1:1] and [1:0.2].

plasmid pTG11236 = assay: Gel retardation assay (Example 4); assay type: binding
Protocol: as §1
Gel retardation assay was performed with peptides SEQ ID NO: 1, SEQ ID NO: 2, SEQ ID NO: 3, SEQ ID NO: 7, SEQ ID NO: 8, SEQ ID NO: 9, SEQ ID NO: 10 , SEQ ID NO: 11, SEQ ID NO: 12, SEQ ID NO: 13, in various media : 5% glucose, 6% Elohes (Fresenius Kabi) and ultrafiltrated serum (YM10 Amicon membrane). Technical conditions are similar to Example 2. DNA and peptides have been mixed at 0.36, 1.44 and 1.8 nmoles of peptide per µg of DNA which correspond to the following charge ratios N/P: […]

[2] = 1.44 nmoles of peptide per µg of DNA
[3] = 1.8 nmoles of peptide per µg of DNA

Substance	Sizes in 5% glucose [1]	Sizes in ultrafiltrated serum [1]	gel retardation of DNA (plasmid pTGl1033; charge ratio [-/+] [1:1])	gel retardation of DNA (plasmid pTGl1033; charge ratio [-/+] [1:4], PBS, TBS, 5% glucose or ultrafiltrated serum, 0.8% agarose, TBE)	retardation of the complexed plasmid DNA (plasmid pTG11236; [2])	retardation of the complexed plasmid DNA (plasmid pTG11236; [3])
SEQ ID NO: 1: synthetic polypeptide consisting of SEQ ID NO:1, C1qA (4-26) of the C1q subunit of C1 complement factor (CRAPDGKKGEAGRPGRRGRPGLK; UniProt P02745 26-48, looked up, fragment)	1µm	300-500 nm	significative retardation	strong association of DNA to the peptides	complete retardation	complete retardation
SP-1052 oxidized: oxidized, dimerized C1qA (4-26) peptide (CRAPDGKKGEAGRPGRRGRPGLK; also: oxidized disulfide-linked dimer; UniProt P02745 26-48, looked up, fragment)	200 nm	300 nm				
SEQ ID NO: 3: C1qA (76-92) peptide (GIKGTKGSPGNIKDQPR; UniProt P02745 98-114, looked up, fragment)					complete retardation	complete retardation
